Drawing on patent US6861435B2, “Urokinase inhibitors” (Pentapharm AG, priority 2001, dated 2005), this text covers Ki for 2 compounds.

Usually Ki stands for a measure of affinity in units of concentration, obtained from inhibition or displacement. Read a low Ki as a stronger hold on the target.

The target in this assay is T1, sc-urokinase (Homo sapiens, UniProt P00749).
T1 construct: purchased Ribosepharm GmbH, Haan, Germany
In words: Determination of the urokinase-inhibiting activity (chromogenic substrate, Dixon). The assay is classed as biochemical. As to conditions: Pefachrome UK or Bz-βAla-Gly-Arg-pNA, 25° C., pH 8.0, mean from at least 3 determinations. On the procedure:
Determination of the Urokinase-inhibiting Activity
To determine the inhibitory activity, 200 μl of Tris buffer (0.05 mol/l, containing the inhibitor, 0.154 mol/l of NaCl, 5% ethanol, pH 8.0), 25 μl of substrate (Pefachrome UK or Bz-βAla-Gly-Arg-pNA in H2O; Pentapharm Ltd., Basel, Switzerland) and 50 μl of sc-urokinase (Ribosepharm GmbH, Haan, Germany) were incubated at 25° C. After 3 min the reaction was stopped by the addition of 25 μl of acetic acid (50%) and the absorption was determined at 405 nm by means of a microplate reader (MR 50001 Dynatech, Denkendorf, Germany). The Ki values were determined according to Dixon by linear regression using a computer program. The Ki values represent the mean from at least 3 determinations.
The Ki values mentioned in Table 2 can be determined according to the above mentioned method.

Structures can show the parent of a compound that is named as a salt.

As for `CCOC(=O)N1CCN(C(=O)N(Cc2cccc(C(=N)N)c2)NS(=O)(=O)c2c(C(C)C)cc(C(C)C)cc2C(C)C)CC1` [Example 5, 1-Ethoxycarbonyl-4-[1-(3-(amino-imino-methyl)-benzyl)-2-(2,4,6-triisopropyl-benzenesulfonyl)-1-hydrazino-carbonyl]-piperazine hydrochloride], the affinity corresponds to a Ki of 0.67 ± 0.18 µM. `CCOC(=O)N1CCN(C(=O)N(Cc2cccc(C(N)=NN)c2)NS(=O)(=O)c2c(C(C)C)cc(C(C)C)cc2C(C)C)CC1` [Example 18] displayed a Ki of 25.6 ± 9.5 µM.
